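Method: 48-hour compound exposure of cells in 96-well plates, five concentrations, linear interpolation of endpoints. At the GI50, growth is halved.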 Activity calls are given as the source filed them. Cut-off read from the data, not from the text of the source: active = GI50 up to about 1.1 µM and inactive = higher.
Columns and labels:
Assay in all cases: growth of human tumour cells (NCI), 48 h
SNB-19 = test system: SNB-19
T47D = test system: T47D
HCC 2998 = test system: HCC 2998
CAKI-1 = test system: CAKI-1
MDA-N = test system: MDA-N
HL-60 = test system: HL-60
BT-549 = test system: BT-549
DU-145 = test system: DU-145
HCT-15 = test system: HCT-15
SNB-75 = test system: SNB-75
OVCAR-8 = test system: OVCAR-8
COLO 205 = test system: COLO 205
Malme-3M = test system: Malme-3M
KM12 = test system: KM12
NCI/ADR-RES = test system: NCI/ADR-RES
SK-MEL-2 = test system: SK-MEL-2
MCF7 = test system: MCF7
IGROV-1 = test system: IGROV-1
SF-268 = test system: SF-268
NCI-H522 = test system: NCI-H522

Row | SMILES | GI50 (SNB-19) | GI50 (T47D) | GI50 (HCC 2998) | GI50 (CAKI-1) | GI50 (MDA-N) | GI50 (HL-60) | GI50 (BT-549) | GI50 (DU-145) | GI50 (HCT-15) [µM] | GI50 (SNB-75) | GI50 (OVCAR-8) | GI50 (COLO 205) | GI50 (Malme-3M) | GI50 (KM12) | GI50 (NCI/ADR-RES) | GI50 (SK-MEL-2) | GI50 (MCF7) | GI50 (IGROV-1) | GI50 (SF-268) | GI50 (NCI-H522)
1 | CC1(C)CCC2=C(O1)/C(=N\Nc1ccc(S(N)(=O)=O)cc1)c1ccccc1C2=O | 16.2 µM (inactive) | 15.6 µM (inactive) | 5.25 µM (inactive) | 14.8 µM (inactive) | 2.84 µM (inactive) | 15.1 µM (inactive) | 13.1 µM (inactive) | 12.5 µM (inactive) | 19.2 | 4.38 µM (inactive) | 10.6 µM (inactive) | 20.3 µM (inactive) | 3.3 µM (inactive) | 10.5 µM (inactive) | 20.2 µM (inactive) | 11.9 µM (inactive) | 13.5 µM (inactive) | 14.2 µM (inactive) | 11 µM (inactive) | 12.1 µM (inactive)
2 | CC(=O)NC1C(OCc2ccccc2)OC(CO)C(O)C1OCC(=O)NC(C)C(=O)NC(CCC(=O)NCCCCNc1ccc([N+](=O)[O-])c2[nH]c3ccccc3c(=O)c12)C(N)=O (stereo unspecified) | 36.7 µM (inactive) | > 100 µM (inactive) | > 100 µM (inactive) | > 100 µM (inactive) | > 100 µM (inactive) | > 100 µM (inactive) | 30.1 µM (inactive) | > 100 µM (inactive) | 65 | 43.9 µM (inactive) | > 100 µM (inactive) | > 100 µM (inactive) | > 100 µM (inactive) | 90.2 µM (inactive) | > 100 µM (inactive) | > 100 µM (inactive) | > 100 µM (inactive) | 56 µM (inactive) | 38.8 µM (inactive) | 
3 | CN(C(=O)Cc1cc(Cl)c(Cl)cc1N=C=S)[C@H]1CCCC[C@@H]1N1CCCC1 | 13.9 µM (inactive) | 16.1 µM (inactive) |  | 15.8 µM (inactive) | 14.8 µM (inactive) | 10.1 µM (inactive) | 15.1 µM (inactive) | 14.7 µM (inactive) | 13.6 | 14.6 µM (inactive) | 14 µM (inactive) | 9.73 µM (inactive) | 17.4 µM (inactive) | 14.8 µM (inactive) | 17.8 µM (inactive) | 15.3 µM (inactive) | 13.3 µM (inactive) | 13.9 µM (inactive) | 15.8 µM (inactive) | 13.1 µM (inactive)
4 | CCN1C(=O)C(=C/C=C/c2ccc(N(CC)CC)cc2)C(=O)N(CC)C1=S | > 100 µM (inactive) | > 100 µM (inactive) | > 100 µM (inactive) | > 100 µM (inactive) | 74.8 µM (inactive) | 23.6 µM (inactive) | 40.7 µM (inactive) | > 100 µM (inactive) | > 100 |  | > 100 µM (inactive) | > 100 µM (inactive) |  | > 100 µM (inactive) | 33.9 µM (inactive) | 68.5 µM (inactive) | > 100 µM (inactive) | > 100 µM (inactive) | > 100 µM (inactive) | 
5 | CC(=O)NCCCCNCCCNC(C)=O | > 100 µM (inactive) | > 100 µM (inactive) | > 100 µM (inactive) | > 100 µM (inactive) | > 100 µM (inactive) | > 100 µM (inactive) | > 100 µM (inactive) | > 100 µM (inactive) | > 100 | > 100 µM (inactive) | > 100 µM (inactive) | > 100 µM (inactive) | > 100 µM (inactive) | > 100 µM (inactive) | > 100 µM (inactive) |  | > 100 µM (inactive) | > 100 µM (inactive) | > 100 µM (inactive) | > 100 µM (inactive)
6 | C=CCN1CCC(OC(=O)C(O)(/C=C\CC)C2CCCC2)CC1 (stereo unspecified) | > 100 µM (inactive) | > 100 µM (inactive) |  | > 100 µM (inactive) | > 100 µM (inactive) | > 100 µM (inactive) | > 100 µM (inactive) | > 100 µM (inactive) | > 100 | > 100 µM (inactive) | > 100 µM (inactive) | > 100 µM (inactive) | > 100 µM (inactive) |  | > 100 µM (inactive) | > 100 µM (inactive) | > 100 µM (inactive) | > 100 µM (inactive) | > 100 µM (inactive) | > 100 µM (inactive)
7 | CC(=O)Nn1c(=S)[nH]c2ccccc21 | > 100 µM (inactive) | > 100 µM (inactive) | > 100 µM (inactive) | > 100 µM (inactive) | > 100 µM (inactive) | > 100 µM (inactive) | > 100 µM (inactive) | > 100 µM (inactive) | > 100 |  | > 100 µM (inactive) | > 100 µM (inactive) | > 100 µM (inactive) | > 100 µM (inactive) | > 100 µM (inactive) | > 100 µM (inactive) | > 100 µM (inactive) | > 100 µM (inactive) | > 100 µM (inactive) | > 100 µM (inactive)

Reference: ChEMBL document CHEMBL1201862, “PubChem BioAssay data set” (2004)
